Assays:
[1] = test system: Olig (oligonucleotide fragment of the UCP1 gene promoter; Oligo) (DNA, G4) CGAGGGTGGGTAGGAGGGGACGCGGGGACT; assay: UV-vis absorption; conditions: 100 mM KCl; 10 mM Tris-HCl pH 7.4, 25°C; 6 μM DNA, 24 μM berberine; ~45% hypochromicity, 340 to 348 nm
[2] = test system: Olig (oligonucleotide fragment of the UCP1 gene promoter; Oligo) (DNA, G4) CGAGGGTGGGTAGGAGGGGACGCGGGGACT; assay: fluorescence enhancement; conditions: 100 mM KCl; 10 mM Tris-HCl pH 7.4, 25°C; 6 μM DNA, 24 μM berberine; excitation 280 nm
[3] = test system: Olig (oligonucleotide fragment of the UCP1 gene promoter; Oligo) (DNA, G4) CGAGGGTGGGTAGGAGGGGACGCGGGGACT; assay: native gel electrophoresis; conditions: 100 mM KCl; 10 mM Tris-HCl pH 7.4, 4°C overnight; 6 μM DNA, 24 μM berberine; Uni-G4 to Tetra-G4

binding [1]: yes
binding [2]: yes
binding [3]: yes
Structure (SMILES): COc1ccc2cc3[n+](cc2c1OC)CCc1cc2c(cc1-3)OCO2

Reference: paper PMC9828300 (2022)
